How the values were obtained:
[1] = system: T1R1/T1R3 receptor (umami receptor); assay: In vitro screening for binding and activation of the umami receptor; type: biochemical; details: in vitro assays using a non-human umami receptor (with in silico modelling); screening in the presence of 0.2 mM IMP
Experimental: In vitro screening was carried out in order to establish which first amino acids bind and activate the umami receptor.
In vitro screening was carried out in order to establish which second amino acids bind and activate the umami receptor.

feline umami receptor = assay: Ligand binding of the feline umami receptor; details: natural ligands of the human T1R1/T1R3 receptor
Text: As mentioned above, in addition to in silico modelling of the feline umami receptor, sequence alignments of the human, cat and dog receptors have been performed. […] Therefore, due to these significant differences, it would not be expected by the skilled person that compounds that are known to bind to the human receptor would affect the umami receptor of other animals as described herein.

Compound: N[C@@H](Cc1c[nH]cn1)C(=O)O [histidine]
- Ability to bind to and activate the umami receptor [1]: able to bind to and activate

Compound: C[C@@H](O)[C@H](N)C(=O)O [threonine]
- Ability to bind to and activate the umami receptor [1]: do not activate

Compound: N[C@@H](CCC(=O)O)C(=O)O [glutamate]
- Binding to the feline umami receptor (feline umami receptor): does not bind

Compound: NCC(=O)O [glycine]
- Ability to bind to and activate the umami receptor [1]: able to bind to and activate
